From paper PMC8318231, “Rate-of-Kill (RoK) assays to triage large compound sets for Chagas disease drug discovery: Application to GSK Chagas Box” (PLoS Neglected Tropical Diseases, 2021)

Legend:
[1] = system: H9c2 (rat cardiomyocytes); experiment: RoK assay, number of host cells nuclei (drug-related cytotoxicity, H9c2 output, Cmin_Tox); conditions: H9c2 host cells
In short: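 H9c2 rat cardiomyocytes infected with T. cruzi trypomastigotes, plated in 384-well format, compound-treated and imaged over a time course. Host nuclei counted after formaldehyde fixation and DRAQ5 staining by high-content imaging. Cmin_Tox is the lowest concentration reducing host cells below 50% of initial density.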

[2] = system: T. cruzi Tulahuen trypomastigotes; experiment: T. cruzi trypomastigote assay (Cell Titer-Glo viability, ATP luminescence); assay type: cell-based, Trypanosoma cruzi; conditions: for Trypomastigotes pIC50 48 hours: 48 hours incubation; for Trypomastigotes pIC50 48 hours / Trypomastigotes pIC50 72 hours: pIC50 = -log10 IC50 in molar units; for Trypomastigotes pIC50 72 hours: 72 hours incubation; for 72 pIC50 (trypomastigotes, raw data of Fig 1D): 72 hours, plotted values, censored values given without sign; for 48 pIC50 / 72 pIC50: trypomastigote assay; for 48 pIC50: 48 h; for 72 pIC50: 72 h; for activity in trypomastigotes assay (in words): 48 and 72 hours
In short: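 Tulahuen trypomastigotes from infected LLC-MK2 culture supernatants (days 5–8) plated at 5 × 10^4 per well in DMEM/2% FBS with compound at 5 μM single-shot final or in dose response. Viability by CellTiter-Glo ATP luminescence after 10 min at room temperature, normalised to no-cell (100%) and DMSO (0%) controls.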

SMILES | Cmin_Tox [1] | Trypomastigotes pIC50 48 hours [2] | Trypomastigotes pIC50 72 hours [2] | 72 pIC50 (trypomastigotes, raw data of Fig 1D) [2] | 48 pIC50 ([2]; figure 1A) | 72 pIC50 ([2]; figure 1A) | 72 pIC50 ([2]; figure 1B) | activity in trypomastigotes assay (in words) [2]
Cn1cc(CN2CCN(c3ccc4c(c3)CCN(C(=O)[C@H]3C[C@@H]3c3ccccc3)CC4)CC2)cn1 [TCMDC-143537] | >50 µM | 5 | 4.9 | – | – | – | – | –
O=C(CN(c1cccc(C(F)(F)F)c1)S(=O)(=O)c1ccc(Cl)cc1)NCc1ccc(F)c(F)c1 [TCMDC-143548] | >50 µM | 5 | 4.9 | – | – | – | – | –
COc1ccc(S(=O)(=O)NCc2ccc(-c3ccc(CN(C)CCO)cc3)cc2)cc1.O=C(O)C(F)(F)F [TCMDC-143549] | >50 µM | 4.6 | < 4.3 | – | – | – | – | –
CCCN1CCN(Cc2ccc(S(=O)(=O)Nc3cccc(C)c3)cc2)CC1.O=C(O)C(F)(F)F.O=C(O)C(F)(F)F [TCMDC-143550] | >50 µM | < 4.3 | < 4.3 | < 4.3 | < 4.3 | < 4.3 | < 4.3 | –
O=C(CSc1ccc(-c2ccccn2)nn1)Nc1ccc(Cl)cc1 [TCMDC-143552] | >50 µM | 5.4 | 5.5 | – | – | – | – | –
c1ccc2c(CCOc3nccnc3-c3ccncc3)c[nH]c2c1 [TCMDC-143562] | >50 µM | 4.4 | 4.5 | – | – | – | – | –
O=C(Nc1ccc(Br)c(Cl)c1)Nc1ccc2c(c1)OCO2 [TCMDC-143588] | >50 µM | 5.5 | < 4.3 | – | – | – | – | –
COc1cccc(C(=O)[C@H]2C[C@@H]2CN(Cc2cccnc2)Cc2cccnc2)c1 [TCMDC-143593] | >50 µM | 5.2 | < 4.3 | – | – | – | – | –
Clc1ccc(Sc2cnccc2N2CCOCC2)cc1 [TCMDC-143602] | >50 µM | 4.5 | < 4.3 | – | – | – | – | –
N#Cc1cc(N2CCCC2=O)ccc1Sc1ccccc1CO [TCMDC-143604] | >50 µM | < 4.3 | < 4.3 | < 4.3 | < 4.3 | < 4.3 | < 4.3 | –
CCCc1nc2nc(N)nc(N)c2cc1CC [TCMDC-143606] | >50 µM | 5.9 | 5.8 | – | – | – | – | –
COc1ccccc1-c1c(C)[nH]c2nc(N)nc(C)c12 [TCMDC-143610] | >50 µM | 6.4 | 6.5 | – | – | – | – | active
CCCCNc1nccc(-c2c(-c3ccc(F)cc3)nn3c(N4CCOCC4)cccc23)n1 [TCMDC-143617] | >50 µM | 5.1 | < 4.3 | – | – | – | – | –
CN(C)CCOc1ccc(N2CCN(S(=O)(=O)c3ccc(Cl)cc3)CC2)cc1 [TCMDC-143622] | >50 µM | < 4.3 | < 4.3 | < 4.3 | < 4.3 | < 4.3 | < 4.3 | –
CN(C)Cc1ccc(N2CCC(NS(=O)(=O)c3ccc(Cl)cc3)CC2)cc1 [TCMDC-143623] | 25.3 µM | 4.5 | 4.4 | – | – | – | – | poorly active
O=c1[nH]ccc2ccc(-c3ccncc3)cc12 [TCMDC-143631] | >50 µM | < 4.3 | < 4.3 | < 4.3 | < 4.3 | < 4.3 | < 4.3 | –
O=C(O)/C=C\C(=O)O.O=C(c1ccc(OCCCc2cnc[nH]2)cc1)C1CC1 [TCMDC-143632] | >50 µM | < 4.3 | < 4.3 | < 4.3 | < 4.3 | < 4.3 | < 4.3 | –
